Test results taken from patent publication US12240844B2 (Voronoi, Inc., priority 2019, dated 2025).

Experiments:
[1] = target: T1, human GST-DYRK1A (full length) (Homo sapiens, UniProt Q13627); experiment: GST-DYRK1A enzyme inhibition, ADP-Glo kinase assay; type: biochemical; conditions: read-out: DYRK1 IC50
T1 construct: purified human GST-DYRK1A (full length, Thermo scientifics) enzyme; GST; purchased Thermo scientifics
Procedure, shortened: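 Full-length human GST-DYRK1A (10 ng) incubated with 10 uM ATP and specific substrate for 1 h at 25° C in 40 mM Tris-HCl pH 7.4, 20 mM MgCl2, 0.5 mg/mL BSA, 50 uM DTT. ADP formation read by ADP-Glo luminescence; IC50 (nM) versus solvent control, triplicate.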

ALK = target: T2, ALK (Homo sapiens, UniProt Q9UM73); experiment: scanMAX Kinase panel (DiscoverX), % control; type: binding; conditions: <35% = active
T2 construct: purchased DiscoverX
Experimental: (§1) Specifically, for Examples 162, 160, 105, 217, 205, 96, 207, 184, 206, 221, 238, and 237 selected among the example compounds of the present invention, it was decided to measure enzyme (kinase) selectivity by DiscoverX, and the experiment was conducted using a panel for scanMAX™ Kinase analysis. At this time, the concentration of the drug treated with the enzyme was 1 uM in DMSO, the control percentage (% control) was determined in the same way as in Equation 1 below, and the results were shown in Table 6 below. [formula] Here, the positive control refers to a compound showing a control percentage of 0%, and the negative control is DMSO, indicating a control percentage of 100%. Also, in the enzyme selectivity of the present invention, if the control percentage for each enzyme was <35% (i.e., less than 35%), it was determined to have activity against the relevant enzyme.

CLK2 = target: T3, CLK2 (Homo sapiens, UniProt P49760); experiment: scanMAX Kinase panel (DiscoverX), % control; type: binding; conditions: <35% = active
T3 construct: purchased DiscoverX
Experimental: as §1

DYRK1B = target: T4, DYRK1B (Homo sapiens, UniProt Q9Y463); experiment: scanMAX Kinase panel (DiscoverX), % control; type: binding; conditions: <35% = active
T4 construct: purchased DiscoverX
Experimental: as §1

ALK (C1156Y) = target: T5, ALK (C1156Y) (Homo sapiens, UniProt Q9UM73, C1156Y); experiment: scanMAX Kinase panel (DiscoverX), % control; type: binding; conditions: <35% = active
T5 construct: purchased DiscoverX
Experimental: as §1

CLK1 = target: T6, CLK1 (Homo sapiens, UniProt P49759); experiment: scanMAX Kinase panel (DiscoverX), % control; type: binding; conditions: <35% = active
T6 construct: purchased DiscoverX
Experimental: as §1

DYRK2 = target: T7, DYRK2 (Homo sapiens, UniProt Q92630); experiment: scanMAX Kinase panel (DiscoverX), % control; type: binding; conditions: <35% = active
T7 construct: purchased DiscoverX
T7 sequence (Q92630 1-601): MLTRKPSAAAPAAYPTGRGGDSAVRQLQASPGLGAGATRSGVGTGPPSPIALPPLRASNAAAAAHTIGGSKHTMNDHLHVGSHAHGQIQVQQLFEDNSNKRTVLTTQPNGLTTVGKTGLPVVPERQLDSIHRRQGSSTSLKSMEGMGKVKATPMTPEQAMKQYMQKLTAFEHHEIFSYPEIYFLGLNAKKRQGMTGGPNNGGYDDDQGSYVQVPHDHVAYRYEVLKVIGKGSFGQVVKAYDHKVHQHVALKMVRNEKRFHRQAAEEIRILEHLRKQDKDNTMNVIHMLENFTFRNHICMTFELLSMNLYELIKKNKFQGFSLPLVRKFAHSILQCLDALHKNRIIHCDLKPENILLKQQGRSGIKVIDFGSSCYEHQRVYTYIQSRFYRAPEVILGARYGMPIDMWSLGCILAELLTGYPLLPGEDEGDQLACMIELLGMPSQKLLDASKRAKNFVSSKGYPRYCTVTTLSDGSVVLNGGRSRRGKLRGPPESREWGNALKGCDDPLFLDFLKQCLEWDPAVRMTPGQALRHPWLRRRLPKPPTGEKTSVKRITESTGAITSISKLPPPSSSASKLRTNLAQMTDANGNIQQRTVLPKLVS
Experimental: as §1

CLK3 = target: T8, CLK3 (Homo sapiens, UniProt P49761); experiment: scanMAX Kinase panel (DiscoverX), % control; type: binding; conditions: <35% = active
T8 construct: purchased DiscoverX
Experimental: as §1

human DYRK1A and Tau = experiment: Tau phosphorylation inhibition, ClariCELL Kinase Cell-Based Assay (Carnabio)
Procedure, shortened: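 HEK293 cells transiently expressing human DYRK1A and Tau were exposed to compound, then lysed. Released Tau was captured on plate and its phosphorylation quantified by ELISA with a phospho-Tau-specific antibody.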

IL-6 = IL-6 secretion inhibition in LPS-treated THP-1 cells (ELISA); type: cell-based; conditions: Homo sapiens, compound 0.5 μM, LPS 500 ng/ml, 24 hours, read-out: THP1/IL6 (% inhib)
Procedure, shortened: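 Human monocytic THP-1 cells were pre-cultured 16 h at 37° C., then treated with compound at 0.5 μM final, followed by LPS at 500 ng/ml final. After 24 h, IL-6 and TNF-α in culture supernatant were quantified by ELISA with absorbance read at 450 nm.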

T3 sequence (P49760 whole entry): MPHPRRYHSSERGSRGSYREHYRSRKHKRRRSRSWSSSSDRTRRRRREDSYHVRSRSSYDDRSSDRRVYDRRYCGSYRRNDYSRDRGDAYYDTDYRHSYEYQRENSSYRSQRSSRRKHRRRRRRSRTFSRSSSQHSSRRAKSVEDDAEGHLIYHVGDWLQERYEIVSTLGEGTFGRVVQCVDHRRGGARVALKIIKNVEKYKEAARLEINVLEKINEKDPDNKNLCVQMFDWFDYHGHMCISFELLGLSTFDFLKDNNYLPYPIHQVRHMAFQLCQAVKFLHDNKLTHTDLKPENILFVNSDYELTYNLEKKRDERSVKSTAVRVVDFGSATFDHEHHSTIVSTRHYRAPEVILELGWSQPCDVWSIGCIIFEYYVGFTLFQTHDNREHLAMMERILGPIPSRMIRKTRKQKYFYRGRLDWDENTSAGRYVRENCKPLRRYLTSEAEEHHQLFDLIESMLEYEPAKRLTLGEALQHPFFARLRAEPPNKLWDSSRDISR
T4 sequence (Q9Y463 whole entry): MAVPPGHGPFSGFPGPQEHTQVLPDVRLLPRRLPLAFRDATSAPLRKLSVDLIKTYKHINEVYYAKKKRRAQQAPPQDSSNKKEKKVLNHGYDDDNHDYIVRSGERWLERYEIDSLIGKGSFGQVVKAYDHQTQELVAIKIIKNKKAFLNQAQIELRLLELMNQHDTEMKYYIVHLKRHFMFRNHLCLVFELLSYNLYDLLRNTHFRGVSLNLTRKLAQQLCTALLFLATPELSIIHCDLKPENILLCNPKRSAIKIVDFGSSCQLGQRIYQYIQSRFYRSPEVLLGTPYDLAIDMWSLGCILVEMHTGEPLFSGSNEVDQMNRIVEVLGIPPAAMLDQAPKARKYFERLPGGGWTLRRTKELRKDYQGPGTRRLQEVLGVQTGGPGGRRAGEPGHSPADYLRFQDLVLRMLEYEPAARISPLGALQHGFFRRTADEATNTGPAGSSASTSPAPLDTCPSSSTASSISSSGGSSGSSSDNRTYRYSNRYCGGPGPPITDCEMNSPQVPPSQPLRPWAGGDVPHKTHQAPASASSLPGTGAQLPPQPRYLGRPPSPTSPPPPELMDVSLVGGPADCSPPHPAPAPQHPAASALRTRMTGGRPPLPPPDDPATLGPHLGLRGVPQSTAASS
T8 sequence (P49761 whole entry): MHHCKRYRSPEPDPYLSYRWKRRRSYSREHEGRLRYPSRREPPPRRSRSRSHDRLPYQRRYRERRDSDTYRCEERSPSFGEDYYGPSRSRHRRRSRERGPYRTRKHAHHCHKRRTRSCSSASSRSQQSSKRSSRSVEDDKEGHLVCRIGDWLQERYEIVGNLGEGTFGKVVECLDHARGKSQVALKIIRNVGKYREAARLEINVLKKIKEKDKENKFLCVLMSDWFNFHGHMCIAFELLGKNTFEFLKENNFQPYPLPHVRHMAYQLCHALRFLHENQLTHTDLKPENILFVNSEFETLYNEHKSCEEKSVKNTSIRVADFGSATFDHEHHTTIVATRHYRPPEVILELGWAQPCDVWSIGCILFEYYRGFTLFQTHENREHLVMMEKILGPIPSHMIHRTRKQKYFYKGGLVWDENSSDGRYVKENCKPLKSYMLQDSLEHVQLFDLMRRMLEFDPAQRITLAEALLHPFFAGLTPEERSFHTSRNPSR
T2 sequence (Q9UM73 19-1620): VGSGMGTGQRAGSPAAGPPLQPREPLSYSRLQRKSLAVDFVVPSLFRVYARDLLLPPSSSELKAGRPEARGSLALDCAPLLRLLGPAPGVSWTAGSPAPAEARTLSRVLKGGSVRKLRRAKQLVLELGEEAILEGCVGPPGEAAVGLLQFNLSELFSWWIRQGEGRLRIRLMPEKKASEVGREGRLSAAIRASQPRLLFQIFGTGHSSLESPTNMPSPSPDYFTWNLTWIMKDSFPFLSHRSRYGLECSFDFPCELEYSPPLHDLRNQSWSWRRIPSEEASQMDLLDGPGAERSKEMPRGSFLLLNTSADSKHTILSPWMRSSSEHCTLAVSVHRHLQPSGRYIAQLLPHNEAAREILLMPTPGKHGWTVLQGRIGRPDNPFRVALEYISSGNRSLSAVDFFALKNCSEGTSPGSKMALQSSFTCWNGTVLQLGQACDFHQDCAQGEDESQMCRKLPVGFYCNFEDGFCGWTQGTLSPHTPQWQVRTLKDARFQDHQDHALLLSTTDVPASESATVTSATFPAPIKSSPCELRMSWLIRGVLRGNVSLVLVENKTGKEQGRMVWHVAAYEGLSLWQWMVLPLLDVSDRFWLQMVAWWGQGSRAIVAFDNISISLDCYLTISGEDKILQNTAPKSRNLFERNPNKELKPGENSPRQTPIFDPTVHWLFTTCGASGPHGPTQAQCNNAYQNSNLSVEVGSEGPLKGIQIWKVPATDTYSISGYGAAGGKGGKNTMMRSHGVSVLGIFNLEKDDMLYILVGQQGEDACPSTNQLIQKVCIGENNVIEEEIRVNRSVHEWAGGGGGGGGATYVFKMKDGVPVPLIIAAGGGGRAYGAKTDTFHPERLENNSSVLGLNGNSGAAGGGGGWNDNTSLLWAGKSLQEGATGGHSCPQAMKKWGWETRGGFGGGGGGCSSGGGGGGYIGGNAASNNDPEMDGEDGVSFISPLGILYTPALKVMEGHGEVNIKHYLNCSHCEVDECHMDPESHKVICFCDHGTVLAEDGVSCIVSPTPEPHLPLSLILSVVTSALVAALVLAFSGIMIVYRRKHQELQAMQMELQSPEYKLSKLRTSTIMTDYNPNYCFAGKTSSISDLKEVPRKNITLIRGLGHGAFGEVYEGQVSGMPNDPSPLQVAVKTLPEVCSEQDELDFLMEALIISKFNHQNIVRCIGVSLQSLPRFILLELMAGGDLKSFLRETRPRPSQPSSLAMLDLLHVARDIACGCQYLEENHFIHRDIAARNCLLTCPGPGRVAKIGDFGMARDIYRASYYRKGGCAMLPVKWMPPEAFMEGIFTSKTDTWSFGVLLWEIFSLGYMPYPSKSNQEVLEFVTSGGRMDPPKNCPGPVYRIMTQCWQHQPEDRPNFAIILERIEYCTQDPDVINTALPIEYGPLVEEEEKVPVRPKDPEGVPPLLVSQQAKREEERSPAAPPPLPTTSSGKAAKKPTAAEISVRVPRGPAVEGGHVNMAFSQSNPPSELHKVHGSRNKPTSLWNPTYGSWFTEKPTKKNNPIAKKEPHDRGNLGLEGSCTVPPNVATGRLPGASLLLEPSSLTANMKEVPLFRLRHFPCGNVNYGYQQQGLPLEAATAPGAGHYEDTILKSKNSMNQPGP
T6 sequence (P49759 whole entry): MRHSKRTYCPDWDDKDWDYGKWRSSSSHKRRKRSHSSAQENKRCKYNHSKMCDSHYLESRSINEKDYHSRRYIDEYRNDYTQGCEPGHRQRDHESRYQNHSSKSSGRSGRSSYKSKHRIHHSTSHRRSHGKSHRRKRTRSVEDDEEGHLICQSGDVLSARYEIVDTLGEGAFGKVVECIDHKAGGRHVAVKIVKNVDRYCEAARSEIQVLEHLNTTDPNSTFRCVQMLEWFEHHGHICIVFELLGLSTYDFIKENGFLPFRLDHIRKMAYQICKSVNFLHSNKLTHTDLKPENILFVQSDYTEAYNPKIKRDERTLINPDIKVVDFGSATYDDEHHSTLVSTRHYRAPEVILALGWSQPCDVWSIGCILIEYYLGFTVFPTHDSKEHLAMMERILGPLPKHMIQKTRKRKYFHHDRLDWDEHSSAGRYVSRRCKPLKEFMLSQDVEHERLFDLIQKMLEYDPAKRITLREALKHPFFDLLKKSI
T5 sequence (Q9UM73 19-1620 C1156Y): as the sequence (Q9UM73 19-1620) above, with C1138Y counted along it

Row | Structure (SMILES) | IC50 [1] [nM] | remaining binding at 1 µM (ALK) [%] | remaining binding at 1 µM (CLK2) [%] | remaining binding at 1 µM (DYRK1B) [%] | remaining binding at 1 µM (ALK (C1156Y)) [%] | remaining binding at 1 µM (CLK1) [%] | remaining binding at 1 µM (DYRK2) [%] | remaining binding at 1 µM (CLK3) [%] | inhibition at 0.25 µM (human DYRK1A and Tau) [%] | inhibition at 0.5 µM (human DYRK1A and Tau) [%] | inhibition at 1 µM (human DYRK1A and Tau) [%] | inhibition at 0.5 µM (IL-6) [%]
1 | O=C(c1ccc(Nc2cc(C3CC3)c3c(C(F)(F)F)c[nH]c3n2)c2c1CCO2)N1CC[C@H](N2CCOCC2)C1 [Example 237, (S)-(7-((4-cyclopropyl-3-(trifluoromethyl)-1H-pyrrolo[2,3-b]pyridin-6-yl)amino)-2,3-dihydrobenzofuran-4-yl)(3-morpholinopyrrolidin-1-yl)methanone] |  | 14 | 0 | 1.4 | 9.7 | 3.6 | 62 | 58 | 7.7 | 20.5 | 34.5 | 
2 | COCCNc1cc(Nc2ccc(P3(=O)CCN(C4CC4)CC3)cc2OC)nc2[nH]cc(C(F)(F)F)c12 [Example 207, 1-cyclopropyl-4-(3-methoxy-4-((4-((2-methoxyethyl)amino)-3-(trifluoromethyl)-1H-pyrrolo[2,3-b]pyridin-6-yl)amino)phenyl)-1,4-azaphosphinane 4-oxide] | < 100 | 5.9 | 7.2 | 0 | 1.8 | 5.6 | 18 | 66 |  |  |  | 41.7
3 | CNc1cc(Nc2ccc(S(=O)(=O)N3CCC(N4CCOCC4)CC3)cc2OC)nc2[nH]cc(C(F)(F)F)c12 [Example 184, N^6-(2-methoxy-4-((4-morpholinopiperidin-1-yl)sulfonyl)phenyl)-N^4-methyl-3-(trifluoromethyl)-1H-pyrrolo[2,3-b]pyridine-4,6-diamine] |  | 15 | 0.3 | 13 | 7 | 3.4 | 14 | 7.8 | 28.5 | 58.2 | 76.1 | 
4 | CCNc1cc(Nc2ccc(P3(=O)CCN(C4CC4)CC3)cc2OC)nc2[nH]cc(C(F)(F)F)c12 [Example 206, 1-cyclopropyl-4-(4-((4-(ethylamino)-3-(trifluoromethyl)-1H-pyrrolo[2,3-b]pyridin-6-yl)amino)-3-methoxyphenyl)-1,4-azaphosphinane 4-oxide] | 301 to 1000 | 9 | 3.1 | 0 | 5.3 | 8.5 | 45 | 91 |  |  |  | 
5 | CNc1cc(Nc2ccc(P3(=O)CCN(C4CC4)CC3)cc2OC)nc2[nH]cc(C(F)(F)F)c12 [Example 205, 1-cyclopropyl-4-(3-methoxy-4-((4-(methylamino)-3-(trifluoromethyl)-1H-pyrrolo[2,3-b]pyridin-6-yl)amino)phenyl)-1,4-azaphosphinane 4-oxide] | < 100 | 1.4 | 0.15 | 2.5 | 1.3 | 18 | 28 | 37 |  |  |  | 

The next lines start with results.

Row | IC50 [1] [nM] | remaining binding at 1 µM (ALK) [%] | remaining binding at 1 µM (CLK2) [%] | remaining binding at 1 µM (DYRK1B) [%] | remaining binding at 1 µM (ALK (C1156Y)) [%] | remaining binding at 1 µM (CLK1) [%] | remaining binding at 1 µM (DYRK2) [%] | remaining binding at 1 µM (CLK3) [%] | Structure (SMILES) | inhibition at 0.25 µM (human DYRK1A and Tau) [%] | inhibition at 0.5 µM (human DYRK1A and Tau) [%] | inhibition at 1 µM (human DYRK1A and Tau) [%] | inhibition at 0.5 µM (IL-6) [%]
6 | 101 to 300 | 0.65 | 0.65 | 0 | 0.9 | 13 | 20 | 13 | CCCNc1cc(Nc2ccc(C(=O)N3CCC(N4CCOCC4)CC3)c3c2OCCO3)nc2[nH]cc(C(F)(F)F)c12 [Example 162, (4-morpholinopiperidin-1-yl)(8-((4-(propylamino)-3-(trifluoromethyl)-1H-pyrrolo[2,3-b]pyridin-6-yl)amino)-2,3-dihydrobenzo[b] [1,4]dioxin-5-yl)methanone] |  |  |  | 
7 |  | 67 | 0.25 | 0.7 | 42 | 2.4 | 89 | 56 | O=C(c1ccc(Nc2cc(C3CC3)c3c(C(F)(F)F)c[nH]c3n2)c2c1CCO2)N1CC[C@@H](N2CCOCC2)C1 [Example 238, (R)-(7-((4-cyclopropyl-3-(trifluoromethyl)-1H-pyrrolo[2,3-b]pyridin-6-yl)amino)-2,3-dihydrobenzofuran-4-yl)(3-morpholinopyrrolidin-1-yl)methanone] | 9.8 | 26.4 | 48.3 | 
8 |  | 17 | 8.2 | 0.45 | 12 | 7.5 | 18 | 60 | O=C(c1ccc(Nc2cc(C3CC3)c3c(C(F)(F)F)c[nH]c3n2)c2c1OCCO2)N1CCC(N2CCOCC2)CC1 [Example 221, (8-((4-cyclopropyl-3-(trifluoromethyl)-1H-pyrrolo[2,3-b]pyridin-6-yl)amino)-2,3-dihydrobenzo [b] [1,4]dioxin-5-yl)(4-morpholinopiperidin-1-yl)methanone] | 6.2 | 24.7 | 23 | 
9 | 301 to 1000 | 9.5 | 1.2 | 3 | 10 | 9.7 | 21 | 27 | CCNc1cc(Nc2ccc(S(=O)(=O)N3CCC(N4CCOCC4)CC3)c3c2OCCO3)nc2[nH]cc(C(F)(F)F)c12 [Example 96, N^4-ethyl-N^6-(8-((4-morpholonopiperidin-1-yl)sulfonyl)-2,3-dihydrobenzo [b] [1,4]dioxin-5-yl)-3-(trifluoromethyl)-1H-pyrrolo[2,3-b]pyridine-4,6-diamine] | 11 | 19.6 | 52.8 | 
10 | 101 to 300 | 0.65 | 0.65 | 0 | 0.9 | 13 | 20 | 13 | CNc1cc(Nc2ccc(C(=O)N3CCC(N4CCOCC4)CC3)c3c2OCCO3)nc2[nH]cc(C(F)(F)F)c12 [Example 160, (8-((4-(methylamino)-3-(trifluoromethyl)-1H-pyrrolo[2,3-b]pyridin-6-yl)amino)-2,3-dihydrobenzo [b] [1,4]dioxin-5-yl)(4-morpholinopiperidin-1-yl)methanone] |  |  |  | 
11 | < 100 | 3.8 | 0.55 | 1.4 | 3.9 | 2.4 | 9.7 | 19 | CNc1cc(Nc2ccc(C(=O)N3CC[C@H](N4CCOCC4)C3)c3c2OCC3)nc2[nH]cc(C(F)(F)F)c12 [Example 217, (S)-(7-((4-(methylamino)-3-(trifluoromethyl)-1H-pyrrolo[2,3-b]pyridin-6-yl)amino)-2,3-dihydrobenzofuran-4-yl)(3-morpholinopyrrolidin-1-yl)methanone] | 50.2 | 60.6 | 84.5 | 
